Measured values from BindingDB's records for doi:10.1016/s0968-0896(01)00282-6 (Purdue University, 2002).

Molecular target: T1, Gag-Pol polyprotein [588-1027]/[588-1147] (Human immunodeficiency virus 1, UniProt P04585)
T1 construct: 588-1027; 588-1147
Assay: HIV-1 RT Assay
Details: pH 7.9

COC(=O)CCC/C=C(/c1cc(C)c(OC)c(C(=O)OC)c1)c1cc(Cl)c(OC)c(C(=O)OC)c1 [Alkenyldiarylmethane (ADAM) 4b]
IC50: 0.516 µM

COC(=O)CCC/C=C(/c1ccc(OC)c(C(=O)OC)c1)c1cc(Cl)c(OC)c(C(=O)OC)c1 [Alkenyldiarylmethane (ADAM) 5b]
IC50: 0.587 µM

COC(=O)CCCC=C(c1ccc(OC)c(Cl)c1)c1ccc(OC)c(Cl)c1 [Alkenyldiarylmethane (ADAM) 9b]
IC50: 100 µM

COC(=O)CCC/C=C\c1cc(C)c(OC)c(C(=O)OC)c1 [Alkenyldiarylmethane (ADAM) 10b]
IC50: 88.2 µM

COC(=O)CCCCC(=O)c1cc(C)c(OC)c(C(=O)OC)c1 [Methyl 6-[4-methoxy-5-(methoxycarbonyl)-3-methylphenyl]-6-oxohexanoate]
IC50: 100 µM

COC(=O)CCCCCc1cc(C)c(OC)c(C(=O)OC)c1 [Methyl 6-[4-methoxy-5-(methoxycarbonyl)-3-methylphenyl]hexanoate]
IC50: 1.75 µM

COC(=O)CCC/C=C(/c1ccc(OC)c(OC)c1)c1cc(C)c(OC)c(C(=O)OC)c1 [Methyl (5Z)-6-(3,4-dimethoxyphenyl)-6-[4-methoxy-3-(methoxycarbonyl)-5-methylphenyl]hex-5-enoate]
IC50: 0.074 µM

COC(=O)CCCC#Cc1cc(C)c(OC)c(C(=O)OC)c1 [methyl 2-methoxy-5-(6-methoxy-6-oxohex-1-yn-1-yl)-3-methylbenzoate]
IC50: 100 µM

COC(=O)CCC/C=C/c1cc(C)c(OC)c(C(=O)OC)c1 [methyl 2-methoxy-5-[(1E)-6-methoxy-6-oxohex-1-en-1-yl]-3-methylbenzoate]
IC50: 100 µM

COC(=O)CCCC=C(c1ccc(OC)c(C(=O)OC)c1)c1ccc(OC)c(C(=O)OC)c1 [methyl 2-methoxy-5-{6-methoxy-1-[4-methoxy-3-(methoxycarbonyl)phenyl]-6-oxohex-1-en-1-yl}benzoate]
IC50: 0.504 µM

COC(=O)CCC/C(=C\c1ccc(OC)c(Cl)c1)c1ccc(OC)c(Cl)c1 [methyl (5E)-5,6-bis(3-chloro-4-methoxyphenyl)hex-5-enoate]
IC50: 100 µM

COC(=O)CCC/C=C(/c1ccc(OC)c(OC)c1)c1cnccn1 [methyl (5Z)-6-(3,4-dimethoxyphenyl)-6-(pyrazin-2-yl)hex-5-enoate]
IC50: 100 µM
